Experimental data reported in patent US20100137240A1, “USE OF NUCLEOSIDE DERIVATIVES AS ANTI-KOI HERPES VIRUS IN FISH” (Katholieke Universiteit Leuven, priority 2007, published 2010).
In brackets after ≈: the same amount, converted by molar mass. Read-outs that look alike come from different tables or passages of the source.

Legend:
Koi Herpes virus (KHV) [1] = assay: Inhibition of Koi Herpes Virus infections in cell culture (plaque / cytopathic effect, crystal violet); format: cell-based, Koi herpesvirus (KHV); conditions: for IC50: Cyprinid herpesvirus 3, 120 h; for effect on KHV replication (in words): in vitro; for concentration resulting in complete inhibition of KHV replication: KHV in CCB cells, five days post infection
Method: KHV inhibitory activity can be readily detected using the assays described herein, as well as other assays known to those of ordinary skill in the art. In general, carp cells are infected with KHV and are incubated with the compounds to be tested for inhibitory activity. A more detailed description is provided in the examples.
(§1) Compounds for testing KHV-antiviral activity were dissolved in dimethylsulfoxide (DMSO) at a concentration of 20 mg/ml, then filtrated through a 0.45 μm filter to obtain a sterile solution. Common carp brain (CCB) cells were grown in minimum essential medium (MEM, commercially available from Invitrogen) containing 4.5 g/l glucose (D-glucose monohydrate, Merck) and 10% fetal calf serum (FCS, commercially available from BioWhittaker). Cells were incubated at 25° C. in a humid atmosphere containing 5% CO2. Confluent cell monolayers grown in 24 wells cluster dishes were inoculated with 200 plaque forming units (PFU) of KHV in 0.2 ml of serum free Dulbecco's Modified Eagle Medium (DMEM, commercially available from Invitrogen). […] Five days post infection (pi), viral plaques or virus induced cytopathic effects were observed by staining cells with a crystal violet (Merck) solution.
as §1, with “Alternatively, PMEDAP was” for “Compounds for testing KHV-antiviral activity were”, “DMEM and propyleneglycol (33.3%)/ethanol(8.3%) (PE buffer) respectively,” for “dimethylsulfoxide (DMSO)”, “10 mg/ml.” for “20 mg/ml, then filtrated through a 0.45 μm filter to obtain a sterile solution.”, “modified eagle medium” for “Modified Eagle Medium”

koi carps [2] = assay: In vivo koi carps toxicity experiment, intraperitoneal injection; parameters: species or system koi carps (Cyprinus carpio koi); conditions: 50 mg/kg intraperitoneal, 10 consecutive days
Method: Naïve adult koi carps were kept in 150-liter tanks with filtrated water maintained at 23° C. One group (n=12) was treated for 10 consecutive days, by intraperitoneal injection of PMEDAP (50 mg/kg) dissolved in 0.2 ml of DMEM. The other group (n=12), used as negative control, was injected with 0.2 ml DMEM. After 10 days, all fish were examined and weighed. Three fishes of each group were euthanized. Liver and kidney explants were treated for anatomopathology analysis.

Koi Herpes virus (KHV) [3] = assay: Pulse chase treatment with PMEDAP on KHV growth in vitro; format: cell-based, Koi herpesvirus (KHV); conditions: 50 μg/ml PMEDAP for only the first 24 hours post infection, CCB cells, observed 5 days post-infection
Method: PMEDAP was dissolved in DMSO at a concentration of 20 mg/ml then filtrated through a 0.45 μm filter. CCB cells were grown in 24-well culture plates in MEM containing 4.5 g/l glucose and 10% FCS. Cells were inoculated with 200 PFU of KHV in 0.2 ml of serum free DMEM. After 2 hours incubation, cells were overlaid with DMEM (4.5 g/l glucose, 10% FCS) containing 50 μg/ml of PMEDAP. Mock-infected cells and untreated infected cells (ND) were included as negative controls. At successive intervals pi, cells were washed twice with PBS then overlaid with complete DMEM. Five days pi, viral plaques were observed by a crystal violet assay.

koi carps [4] = assay: In vivo koi carps toxicity experiment, intramuscular injection; parameters: species or system koi carps (Cyprinus carpio koi); conditions: for Microscopic lesions: liver and kidney explants
Method: An additional experiment was performed as following: Naive adult koi carps were kept in 60-liter tanks with filtrated water maintained at 23° C. […] (5 koi per group) were treated for 10 consecutive days, by intramuscular injection of 20 mg/kg PMEDAP ((“PMEDAP 20”) or 50 mg/kg PMEDAP (“PMEDAP 50”)) dissolved in 0.1 ml of DMEM. Two other groups (5 koi per group), used as negative controls, were injected with 0.1 ml of DMEM. After 10 days, all fish were examined and weighed. Three fishes of each group were euthanized. Liver and kidney explants were treated for anatomopathology analysis.

KHV infections = conditions: Ilouze et al., FEBS Letters (2006) 580(18) 4473-4478; cited from earlier work
[5] = KHV (200 PFU) in CCB cells, compounds dissolved in DMSO, read five days post infection, read-out: IC50
[6] = 20 mg/kg intramuscular, 10 consecutive days (PMEDAP 20)
[7] = 50 mg/kg intramuscular, 10 consecutive days (PMEDAP 50)

SMILES: Nc1ccn(C[C@@H](CO)OCP(=O)(O)O)c(=O)n1 [HPMPC, cidofovir]
- IC50 (Koi Herpes virus (KHV) [1]; [5]): 50 µg/mL (≈ 179 µM)
- effect on KHV replication (in words) (Koi Herpes virus (KHV) [1]): no effect or a very limited effect

SMILES: Nc1ncnc2c1ncn2CCOCP(=O)(O)O [PMEA (adefovir), 9-[2-phosphonylmethoxyethyl]adenine]
- IC50 (Koi Herpes virus (KHV) [1]; [5]): 6.5 µg/mL (≈ 23.8 µM)
- concentration resulting in complete inhibition of KHV replication (Koi Herpes virus (KHV) [1]): 25 µg/mL

SMILES: Nc1nc(N)c2ncn(CCOCP(=O)(O)O)c2n1 [PMEDAP, 9-(2-phosphonylmethoxyethyl)-2,6-diaminopurine]
- Clinical signs (koi carps [2]): None
- Survival (%) (koi carps [2]): 100%
- mean weight of fishes, PMEDAP versus DMEM (koi carps [2]): statistically similar
- toxic effect (in words) (koi carps [2]): did not reveal any toxic effect
- Microscopic lesions (koi carps [2]; liver and kidney explants): None
- Mean final weight (koi carps [2]; mean initial weight 66.1 g): 71.5 g
- inhibition of virus induced cytopathic effect (Koi Herpes virus (KHV) [3]): complete inhibition
- IC50 (Koi Herpes virus (KHV) [1]; [5]): 4.8 µg/mL (≈ 16.7 µM)
- concentration resulting in complete inhibition of KHV replication (Koi Herpes virus (KHV) [1]): 12.5 µg/mL
- effect on KHV replication (in words) (Koi Herpes virus (KHV) [1]): highly active
- Clinical signs (koi carps [4]; [6]): None
- Survival (%) (koi carps [4]; [6]): 100%
- Microscopic lesions (koi carps [4]; [6]): None
- Mean final weight (koi carps [4]; 20 mg/kg intramuscular, 10 consecutive days (PMEDAP 20), mean initial weight 23.1 g): 21.3 g
- Clinical signs (koi carps [4]; [7]): None
- Survival (%) (koi carps [4]; [7]): 100%
- Microscopic lesions (koi carps [4]; [7]): None
- Mean final weight (koi carps [4]; 50 mg/kg intramuscular, 10 consecutive days (PMEDAP 50), mean initial weight 16.3 g): 15.3 g

SMILES: O=c1[nH]c(=O)n([C@H]2C[C@H](O)[C@@H](CO)O2)cc1/C=C/Br [BVDU (brivudin), brivudin]
- IC50 (Koi Herpes virus (KHV) [1]): 100 µg/mL (≈ 300 µM)
- effect on KHV replication (in words) (Koi Herpes virus (KHV) [1]): no effect or a very limited effect

SMILES: Nc1nc2c(ncn2COCCO)c(=O)[nH]1 [acyclovir]
- effect on KHV replication (in words) (Koi Herpes virus (KHV) [1]): no effect or a very limited effect
- activity against KHV infections (in words) (KHV infections): inactive

SMILES: Nc1nc(O)c2ncn(COC(CO)CO)c2n1 [GCV (ganciclovir), ganciclovir]
- IC50 (Koi Herpes virus (KHV) [1]; [5]): 100 µg/mL (≈ 392 µM)
- effect on KHV replication (in words) (Koi Herpes virus (KHV) [1]): no effect or a very limited effect

SMILES: O=C(O)P(=O)(O)O [PFA (foscarnet), foscarnet]
- IC50 (Koi Herpes virus (KHV) [1]; [5]): > 100 µg/mL
